Source: publication PMC11995724, “Antibiotic target discovery by integrated phenotypic and activity-based profiling of electrophilic fragments” (Cell chemical biology, 2025)

Assay: in vitro
Settings: human, hek293t cells

Q: Which viability at 48 h, 25 µM does the source give for N#CCCSc1ccccc1NC(=O)CCl [6-N12, 2-chloro-N-{2-[(2-cyanoethyl)sulfanyl]phenyl}acetamide] here?
A: Its viability at 48 h, 25 µM is 1.44%.

Q: For CC(Cl)C(=O)Nc1ccc2c(c1)ncn2-c1ccccc1 (stereo not shown) [6-N13, 2-chloro-N-(1-phenyl-1H-1,3-benzodiazol-5-yl)propanamide], which viability at 48 h, 25 µM is on record?
A: The viability at 48 h, 25 µM was 105%.

Q: With CC(Cl)C(=O)NCc1nnc2n1-c1ccccc1CC2 (stereo not shown) [6-N14, 2-chloro-N-({4H,5H-[1,2,4]triazolo[4,3-a]quinolin-1-yl}methyl)propanamide] as the compound, how does the viability at 48 h, 25 µM read?
A: Its viability at 48 h, 25 µM is 110%.

Q: For CC(Cl)C(=O)NCCS(=O)(=O)c1cccs1 (stereo not shown) [6-N15, 2-chloro-N-[2-(thiophene-2-sulfonyl)ethyl]propanamide], which viability at 48 h, 25 µM is on record?
A: The viability at 48 h, 25 µM was 105%.

Q: For CC(Cl)C(=O)N1CCCN(C)c2cc(F)ccc21 (stereo not shown) [6-N16, 2-chloro-1-(7-fluoro-5-methyl-2,3,4,5-tetrahydro-1H-1,5-benzodiazepin-1-yl)propan-1-one], which viability at 48 h, 25 µM is on record?
A: Its viability at 48 h, 25 µM is 101%.

Q: For Cc1nn(C)c(N2CCCN(C)CC2)c1CNC(=O)C(C)Cl (stereo not shown) [6-N17, 2-chloro-N-{[1,3-dimethyl-5-(4-methyl-1,4-diazepan-1-yl)-1H-pyrazol-4-yl]methyl}propanamide], which viability at 48 h, 25 µM is on record?
A: The viability at 48 h, 25 µM was 107%.

Q: For CC(Cl)C(=O)N1C2CCC1CC1(C2)CC1(F)F (stereo not shown) [6-N18, 2-chloro-1-{2',2'-difluoro-8-azaspiro[bicyclo[3.2.1]octane-3,1'-cyclopropan]-8-yl}propan-1-one], which viability at 48 h, 25 µM is on record?
A: The viability at 48 h, 25 µM was 112%.

Q: Which viability at 48 h, 25 µM does the source give for CC(Cl)C(=O)N1CCN(Cc2ccc(C(F)(F)F)cc2)C(=O)C1 (stereo not shown) [6-N19, 4-(2-chloropropanoyl)-1-{[4-(trifluoromethyl)phenyl]methyl}piperazin-2-one] here?
A: Its viability at 48 h, 25 µM is 99.6%.

Q: With CC(Cl)C(=O)N1CCN(c2cc(-c3ccccc3F)n[nH]2)CC1 (stereo not shown) [6-N20, 2-chloro-1-{4-[3-(2-fluorophenyl)-1H-pyrazol-5-yl]piperazin-1-yl}propan-1-one] as the compound, how does the viability at 48 h, 25 µM read?
A: Its viability at 48 h, 25 µM is 86.2%.

Q: Which viability at 48 h, 25 µM does the source give for CC(Cl)C(=O)N1CCCC(c2nc(-c3cccc(F)c3)no2)C1 (stereo not shown) [6-N21, 2-chloro-1-{3-[3-(3-fluorophenyl)-1,2,4-oxadiazol-5-yl]piperidin-1-yl}propan-1-one] here?
A: Its viability at 48 h, 25 µM is 90.2%.

Q: Which viability at 48 h, 25 µM does the source give for CC(Cl)C(=O)N(c1cccc(C#N)c1)C1CCC1 (stereo not shown) [6-N22, 2-chloro-N-(3-cyanophenyl)-N-cyclobutylpropanamide] here?
A: The viability at 48 h, 25 µM was 90.1%.

Q: Which viability at 48 h, 25 µM does the source give for COc1ccc(S(N)(=O)=O)cc1NC(=O)CCl [6-O03, 2-chloro-N-(2-methoxy-5-sulfamoylphenyl)acetamide] here?
A: The viability at 48 h, 25 µM was 0.606%.

Q: Which viability at 48 h, 25 µM does the source give for COc1ccc(OC)c(NC(=O)CCl)c1 [6-O04, 2-chloro-N-(2,5-dimethoxyphenyl)acetamide] here?
A: The viability at 48 h, 25 µM was 0.314%.

Q: With O=C(CCl)NCCCC1CCCCC1 [6-O05, 2-chloro-N-(3-cyclohexylpropyl)acetamide] as the compound, how does the viability at 48 h, 25 µM read?
A: The viability at 48 h, 25 µM was 45.7%.

Q: With CC1CCCCC1OCCNC(=O)CCl (stereo not shown) [6-O06, 2-chloro-N-{2-[(2-methylcyclohexyl)oxy]ethyl}acetamide] as the compound, how does the viability at 48 h, 25 µM read?
A: Its viability at 48 h, 25 µM is 112%.

Q: Which viability at 48 h, 25 µM does the source give for Cc1cccc(N(Cc2ccccc2)C(=O)CCl)c1 [6-O07, N-benzyl-2-chloro-N-(3-methylphenyl)acetamide] here?
A: Its viability at 48 h, 25 µM is 0.964%.

Q: For O=C(CCl)Nc1ccnn1Cc1ccccc1Cl [6-O08, 2-chloro-N-{1-[(2-chlorophenyl)methyl]-1H-pyrazol-5-yl}acetamide], which viability at 48 h, 25 µM is on record?
A: Its viability at 48 h, 25 µM is 0.422%.

Q: With CCOc1ccc(NC(=O)C(C)Cl)cc1 (stereo not shown) [6-O09, 2-chloro-N-(4-ethoxyphenyl)propanamide] as the compound, how does the viability at 48 h, 25 µM read?
A: Its viability at 48 h, 25 µM is 89.5%.

Q: Which viability at 48 h, 25 µM does the source give for CCC(NC(=O)CCl)c1ccc(Cl)cc1 (stereo not shown) [6-O10, 2-chloro-N-[1-(4-chlorophenyl)propyl]acetamide] here?
A: Its viability at 48 h, 25 µM is 1.9%.

Q: Which viability at 48 h, 25 µM does the source give for O=C(O)C1CCN(C(=O)CCl)CC1 [6-O11, 1-(2-chloroacetyl)piperidine-4-carboxylic acid] here?
A: Its viability at 48 h, 25 µM is 113%.

Q: With CS(=O)(=O)c1ccc(CNC(=O)CCl)cc1 [6-O12, 2-chloro-N-[(4-methanesulfonylphenyl)methyl]acetamide] as the compound, how does the viability at 48 h, 25 µM read?
A: The viability at 48 h, 25 µM was 1.69%.

Q: With CC(Cl)C(=O)Nc1ccc(OCc2ccccc2)cc1 (stereo not shown) [6-O13, N-[4-(benzyloxy)phenyl]-2-chloropropanamide] as the compound, how does the viability at 48 h, 25 µM read?
A: Its viability at 48 h, 25 µM is 99.7%.
